In brackets after ≈: the same amount, converted by molar mass.
Key:
Format in all cases: functional
[1] = test system: Mycobacterium tuberculosis; experiment: Antimycobacterial activity against isoniazid, rifampin, ethambutol, streptomycin-resistant Mycobacterium tuberculosis after 7 days by microplate Alamar blue assay; settings: 168 h
[2] = test system: Mycobacterium tuberculosis; experiment: Antimycobacterial activity against isoniazid, rifampin, ethambutol, streptomycin, ofloxacin-resistant Mycobacterium tuberculosis after 7 days by microplate Alamar blue assay; settings: 168 h
[3] = test system: Mycobacterium tuberculosis; experiment: Antimycobacterial activity against isoniazid, rifampin-resistant Mycobacterium tuberculosis after 7 days by microplate Alamar blue assay; settings: 168 h
[4] = test system: Mycobacterium tuberculosis; experiment: Antimycobacterial activity against isoniazid, rifampin, streptomycin, ofloxacin-resistant Mycobacterium tuberculosis after 7 days by microplate Alamar blue assay; settings: 168 h
[5] = test system: Mycobacterium tuberculosis; experiment: Antimycobacterial activity against isoniazid, rifampin, ethambutol, ofloxacin-resistant Mycobacterium tuberculosis after 7 days by microplate Alamar blue assay; settings: 168 h
[6] = test system: Mycobacterium tuberculosis; experiment: Antimycobacterial activity against isoniazid, rifampin, streptomycin-resistant Mycobacterium tuberculosis after 7 days by microplate Alamar blue assay; settings: 168 h
[7] = test system: Mycobacterium tuberculosis; experiment: Antimycobacterial activity against isoniazid, rifampin, ethambutol-resistant Mycobacterium tuberculosis after 7 days by microplate Alamar blue assay; settings: 168 h
[8] = test system: Mycobacterium tuberculosis; experiment: Antimycobacterial activity against Ethionamide-resistant Mycobacterium tuberculosis H37Rv ATCC 35830 after 7 days by microplate Alamar blue assay; settings: H37Rv ATCC 35830, 168 h
[9] = test system: Mycobacterium tuberculosis; experiment: Antimycobacterial activity against pyrazinamide-resistant Mycobacterium tuberculosis H37Rv ATCC 35828 after 7 days by microplate Alamar blue assay; settings: H37Rv ATCC 35828, 168 h

SMILES	MIC [1]	MIC [2]	MIC [3]	MIC [4]	MIC [5]	MIC [6]	MIC [7]	MIC [8]	MIC [9]
CC1COc2c(N3CCN(C)CC3)c(F)cc3c(=O)c(C(=O)O)cn1c23 (stereo unspecified) [OFLOXACIN]	≤ 2 µg/mL	≥ 4 µg/mL	≤ 2 µg/mL	≥ 4 µg/mL	≥ 4 µg/mL	≤ 2 µg/mL	≤ 2 µg/mL	–	–
CN1Cc2c(cn3c2ccc2ccccc23)-c2ccccc21	–	–	–	–	–	–	–	6.2 µg/mL (≈ 21.8 µM)	3.1 µg/mL (≈ 10.9 µM)
CC[C@@H](CO)NCCN[C@@H](CC)CO [ETHAMBUTOL]	≥ 8 µg/mL	≥ 8 µg/mL	≤ 2 µg/mL	≤ 2 µg/mL	≥ 8 µg/mL	≤ 2 µg/mL	≥ 8 µg/mL	–	–
C/C=C/C1=CC=C/C(=C2\C(=O)CNC2=O)O1 [VERMELHOTIN]	–	–	–	–	–	–	–	3.1 µg/mL (≈ 14.3 µM)	6.2 µg/mL (≈ 28.5 µM)
CO[C@H]1/C=C/O[C@@]2(C)Oc3c(C)c(O)c4c(O)c(c(/C=N/N5CCN(C)CC5)c(O)c4c3C2=O)NC(=O)/C(C)=C\C=C\[C@H](C)[C@H](O)[C@@H](C)[C@@H](O)[C@@H](C)[C@H](OC(C)=O)[C@@H]1C [RIFAMPIN]	≥ 2 µg/mL	≥ 2 µg/mL	≥ 2 µg/mL	≥ 2 µg/mL	≥ 2 µg/mL	≥ 2 µg/mL	≥ 2 µg/mL	–	–
C[n+]1cc2c(cn3c4ccccc4ccc23)c2ccccc21.[I-]	–	–	–	–	–	–	–	6.2 µg/mL	6.2 µg/mL
CN[C@@H]1[C@H](O[C@H]2[C@H](O[C@H]3[C@H](O)[C@@H](O)[C@H](N=C(N)N)[C@@H](O)[C@@H]3N=C(N)N)O[C@@H](C)[C@]2(O)C=O)O[C@@H](CO)[C@H](O)[C@H]1O [STREPTOMYCIN]	≥ 8 µg/mL	≥ 8 µg/mL	≤ 2 µg/mL	≥ 8 µg/mL	≤ 2 µg/mL	≥ 8 µg/mL	≤ 2 µg/mL	–	–
NNC(=O)c1ccncc1 [ISONIAZID]	≥ 2 µg/mL	≥ 2 µg/mL	≥ 2 µg/mL	≥ 2 µg/mL	≥ 2 µg/mL	≥ 2 µg/mL	≥ 2 µg/mL	–	–

Reference: ChEMBL document CHEMBL3352707, “Antimycobacterial activity of natural products and synthetic agents: pyrrolodiquinolines and vermelhotin as anti-tubercular leads against clinical multidrug resistant isolates of Mycobacterium tuberculosis” (Eur J Med Chem, 2015)
